Source: patent publication US20240417428A1, “POLYPEPTIDE FOR INHIBITING TRPM8 AND USE THEREOF” (ZHEJIANG UNIVERSITY, priority 2021, published 2024)
pIC50: −log10 of the molar value. Where a SMILES comes first, the peptide text is derived from it.

Assays:
[1] = biological target: T1, TRPV2 (Homo sapiens, UniProt Q9Y5S1); assay: Electrophysiological recording, ligand activation of TRPV2; format: cell-based; conditions: IC 50 TRPV2
T1 construct: expressed in transfected cells; host or cells: HEK293T
T1 sequence (Q9Y5S1 1-764): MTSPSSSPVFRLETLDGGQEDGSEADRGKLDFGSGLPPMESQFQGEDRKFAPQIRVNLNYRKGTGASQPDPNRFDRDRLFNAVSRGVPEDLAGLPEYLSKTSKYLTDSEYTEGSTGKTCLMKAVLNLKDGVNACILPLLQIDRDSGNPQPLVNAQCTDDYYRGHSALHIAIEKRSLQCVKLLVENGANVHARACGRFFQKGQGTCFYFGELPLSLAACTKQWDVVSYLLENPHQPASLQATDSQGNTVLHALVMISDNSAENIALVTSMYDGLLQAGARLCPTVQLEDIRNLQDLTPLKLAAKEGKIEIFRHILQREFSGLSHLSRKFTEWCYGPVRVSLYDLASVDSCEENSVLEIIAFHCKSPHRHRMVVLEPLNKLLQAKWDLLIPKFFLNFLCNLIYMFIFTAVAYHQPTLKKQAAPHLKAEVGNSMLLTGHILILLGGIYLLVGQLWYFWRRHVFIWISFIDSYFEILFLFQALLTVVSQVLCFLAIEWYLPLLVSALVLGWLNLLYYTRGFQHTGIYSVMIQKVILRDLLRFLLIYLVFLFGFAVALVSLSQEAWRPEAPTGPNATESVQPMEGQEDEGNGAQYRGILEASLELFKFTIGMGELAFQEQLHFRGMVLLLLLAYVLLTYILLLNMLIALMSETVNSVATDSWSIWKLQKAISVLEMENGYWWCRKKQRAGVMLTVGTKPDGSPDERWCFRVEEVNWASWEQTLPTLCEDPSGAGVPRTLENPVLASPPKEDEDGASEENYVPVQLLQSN
Procedure: HEK293T cells were cultured in Dulbecco's modified Eagle culture medium under a 37° C., 5% CO2 environment, 10% fetal bovine serum, penicillin (100 U/mL), and streptomycin ([…]) was needed to add into the culture medium. Transient transfection was conducted by using Lipo 2000 (Invitrogen) transfection kit and following the instruction manual.
Electrophysiological experiment recordings were performed on the cells within 24˜48 h of transient transfections. Specifically, single channel electrophysiological recordings were performed within 8 h after transfection.
Measurement of the cell currents was respectively performed in the whole-cell recording mode, inside-out recording mode or outside-out recording mode with a HEKA EPC10 amplifier. In the whole cell electrophysiological recordings, glass microelectrodes made of borosilicate material were fire-polished to a original electrode resistance of about 3-6 MΩ. Serial resistance was compensated by 60%. The whole cell electrophysiological recordings were performed at ±80 mV. For single channel electrophysiological recordings, glass microelectrodes were fire-polished to a higher resistance of 6-8 MΩ2. Current signal was sampled at 10 kHz and filtered at 2.9 kHz. Membrane potential of the cell membrane would be clamped at +80 mV. All electrophysiological recordings were performed at room temperature (22° C.) (the maximum variation is 1° C.). […]

[2] = system: oxaliplatin-induced mechanical allodynia; assay: Oxaliplatin-induced mechanical allodynia, von Frey test; format: in vivo, mice; conditions: 3.5 μg/20 μl i.pl., day 10 after oxaliplatin, compared to saline
Procedure: Adult male CD1 mice (6-8 weeks old) were used as experimental animals for behavioral experiments and primary cultures of DRG neurons. Mice were raised in the condition of 12 h light/12 h dark of light cycle with adequate standard chow and water. All animal protocols were approved by the Institutional Animal Care and Use Committee (IACUC) of Zhejiang University.
All of mice were habituated to the behavioral testing environment for 1-to-2 hours in 2-to-3 days before the behavioral testing. Single intraperitoneal (i.p.) injection of oxaliplatin (6 mg/kg body weight) was given to generate chemotherapy-induced neuropathic pain. Neuropathic pain behaviors were tested about 10 days after oxaliplatin injection.
Mechanical allodynia was assessed by measuring paw withdrawal thresholds in von Frey test. The paw withdrawal thresholds of mice in the von Frey test were tested according to Dixon'sup-down method. […] The vonFrey hairs with different stiffness were selected in turn to simulate, with 5 s interval per two simulations, and total six simulations were completed, the paw withdrawal thresholds (PWT) of mice were assessed according to the responding amount table The von Frey test was respectively performed on day 10 pre- or post-treatment with Oxaliplatin, saline or 3.5 μg/20 μL DeC-1.2 was intraplantarly injected to assess its analgesic effect on oxaliplatin-induced allodynia.

[3] = Mice body temperature measurement; format: in vivo; conditions: 30 μg/g body weight i.v., up to 24 h
Procedure: A digital thermometer (FT3400) was used for body temperature measurement of mice. Adult CD1 male mice were placed into an environmental room maintained at a constant temperature of 22±1° C. Mice were injected with DeC-1.2 (30 mg/kg body weight) via the tail vein to assess the effect of DeC-1.2 on body temperature. Body temperature was measured before treatment (baseline, BL) and at 5 min, 15 min, 0.5, 1, 2, 6 and 24 hours following DeC-1.2 (30 mg/kg, i.v.) administration. The test probe of the thermometer was inserted into the anus of the mouse approximately 2 cm, and the body temperature was recorded after the temperature display value was stable.

C[C@@H]1NC(=O)[C@H](CCCNC(=N)N)NC(=O)[C@H](CC(=O)O)NC(=O)[C@H](CCCNC(=N)N)NC(=O)[C@H](CCCNC(=N)N)NC(=O)[C@@H](N)CSSC[C@@H](C(=O)O)NC(=O)[C@H](CCCNC(=N)N)NC(=O)[C@H](CCC(N)=O)NC(=O)[C@H](CCCNC(=N)N)NC(=O)[C@H](Cc2ccc(O)cc2)NC(=O)[C@H](Cc2c[nH]cn2)NC(=O)[C@H](CCCNC(=N)N)NC1=O [DeC-1.2, CRRDRARHYRQRC] (HELM PEPTIDE1{C.R.R.D.R.A.R.H.Y.R.Q.R.C}$PEPTIDE1,PEPTIDE1,1:R3-13:R3$$$V2.0; N-terminus and C-terminus assumed)
pIC50 [1]: < 5.30 | paw withdrawal threshold in von Frey test [2]: did not change paw withdrawal threshold | effect on body temperature [3]: did not significantly alter body temperature
